Test results: patent US9758524B2, “4-imidazopyridazin-1-yl-benzamides as Btk inhibitors” (Merck Sharp & Dohme B.V., priority 2011, dated 2017)
Read-outs that look alike come from different tables or passages of the source.

Legend:
[1] = target: FynT enzyme (Homo sapiens (Human), UniProt P06241); experiment: FynT enzyme activity (IMAP fluorescence polarization assay); type: biochemical; conditions: 60 min pre-incubation, 0.2 μM ATP
Protocol: FynT enzyme activity is measured using the IMAP (immobilized metal ion affinity-based fluorescence polarization) assay as outlined below.
Test compounds and FynT enzyme are pre-incubated 60 minutes at room temperature, before adding 5 μL/well of 400 nM Fluorescin labeled substrate peptide (p34cdc2 substrate peptide, e.g. #R7157/#R7172, Molecular Devices) in KR-buffer. Final peptide substrate concentration in assay is 100 nM. […] Following incubation for 2 h at room temperature the enzyme reaction is stopped by adding 40 μL/well IMAP Progressive Binding Solution (according to suppliers (Molecular Devices) protocol using 75% 1× buffer A and 25% 1× buffer B with 1:600 Progressive Binding Solution). After 60 min incubation at room temperature in the dark the FP signal is read. […] Values are calculated as percentage of the difference in readout (ΔmPi) of the controls with and without ATP. EC50 values are determined by curve fitting of the experimental results using Activity Base.

[2] = target: Btk enzyme (His-Btk) (Homo sapiens (Human), UniProt Q06187); experiment: Btk enzyme activity (IMAP fluorescence polarization assay)
Btk enzyme (His-Btk), sequence (Q06187 whole entry): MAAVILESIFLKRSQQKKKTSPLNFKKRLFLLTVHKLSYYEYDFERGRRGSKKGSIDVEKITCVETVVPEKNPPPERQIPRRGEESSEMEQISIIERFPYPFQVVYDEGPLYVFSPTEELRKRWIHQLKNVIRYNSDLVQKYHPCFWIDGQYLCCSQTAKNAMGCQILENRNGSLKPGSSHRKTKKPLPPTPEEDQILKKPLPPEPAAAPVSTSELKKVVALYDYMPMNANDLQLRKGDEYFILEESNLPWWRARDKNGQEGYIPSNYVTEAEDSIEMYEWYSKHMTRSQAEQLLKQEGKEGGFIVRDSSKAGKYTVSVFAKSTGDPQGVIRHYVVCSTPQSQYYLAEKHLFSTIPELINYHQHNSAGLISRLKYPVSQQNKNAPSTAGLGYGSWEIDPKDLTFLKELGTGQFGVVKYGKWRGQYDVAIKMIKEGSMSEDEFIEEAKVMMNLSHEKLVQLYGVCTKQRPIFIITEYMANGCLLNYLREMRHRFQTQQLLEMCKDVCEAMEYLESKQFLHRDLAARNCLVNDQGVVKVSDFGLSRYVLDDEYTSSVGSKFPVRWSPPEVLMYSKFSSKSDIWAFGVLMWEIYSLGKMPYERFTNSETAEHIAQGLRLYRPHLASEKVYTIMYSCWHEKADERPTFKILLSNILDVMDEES
Protocol: Inhibition of kinase activity can be measured using the Immobilized Metal Assay for Phosphochemicals (IMAP) assay. IMAP is a homogeneous fluorescence polarization (FP) assay based on affinity capture of phosphorylated peptide substrates. IMAP uses fluorescein-labeled peptide substrates that, upon phosphorylation by a protein kinase, bind to so-called IMAP nanoparticles, which are derivatized with trivalent metal complexes.
Final peptide substrate concentration in assay is 50 nM.

[3] = target: Lck enzyme (Homo sapiens (Human), UniProt P06239); experiment: Lck enzyme activity (IMAP fluorescence polarization assay); conditions: read-out: EC50 Lck activity values; IMAP, 60 min pre-incubation, 6 μM ATP; bin bound in μM
Lck enzyme, sequence (P06239 whole entry): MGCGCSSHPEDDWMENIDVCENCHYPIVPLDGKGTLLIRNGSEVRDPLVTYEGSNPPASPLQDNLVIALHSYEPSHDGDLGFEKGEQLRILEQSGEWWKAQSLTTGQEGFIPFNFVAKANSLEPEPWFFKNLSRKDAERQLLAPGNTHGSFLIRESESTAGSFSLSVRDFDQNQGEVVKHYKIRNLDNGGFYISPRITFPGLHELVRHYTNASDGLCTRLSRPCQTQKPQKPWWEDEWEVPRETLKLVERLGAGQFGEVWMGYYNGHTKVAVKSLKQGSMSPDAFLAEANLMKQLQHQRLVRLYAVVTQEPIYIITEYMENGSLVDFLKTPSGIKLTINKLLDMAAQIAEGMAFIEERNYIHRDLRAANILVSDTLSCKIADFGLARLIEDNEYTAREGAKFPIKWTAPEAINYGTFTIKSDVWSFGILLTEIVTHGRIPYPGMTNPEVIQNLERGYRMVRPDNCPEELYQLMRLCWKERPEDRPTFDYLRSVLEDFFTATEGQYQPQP

[4] = target: Src enzyme (Homo sapiens (Human), UniProt P12931); experiment: Src enzyme activity (IMAP fluorescence polarization assay); conditions: read-out: EC50 Src activity values; IMAP, 60 min pre-incubation, 4 μM ATP
Src enzyme, sequence (P12931 whole entry, looked up): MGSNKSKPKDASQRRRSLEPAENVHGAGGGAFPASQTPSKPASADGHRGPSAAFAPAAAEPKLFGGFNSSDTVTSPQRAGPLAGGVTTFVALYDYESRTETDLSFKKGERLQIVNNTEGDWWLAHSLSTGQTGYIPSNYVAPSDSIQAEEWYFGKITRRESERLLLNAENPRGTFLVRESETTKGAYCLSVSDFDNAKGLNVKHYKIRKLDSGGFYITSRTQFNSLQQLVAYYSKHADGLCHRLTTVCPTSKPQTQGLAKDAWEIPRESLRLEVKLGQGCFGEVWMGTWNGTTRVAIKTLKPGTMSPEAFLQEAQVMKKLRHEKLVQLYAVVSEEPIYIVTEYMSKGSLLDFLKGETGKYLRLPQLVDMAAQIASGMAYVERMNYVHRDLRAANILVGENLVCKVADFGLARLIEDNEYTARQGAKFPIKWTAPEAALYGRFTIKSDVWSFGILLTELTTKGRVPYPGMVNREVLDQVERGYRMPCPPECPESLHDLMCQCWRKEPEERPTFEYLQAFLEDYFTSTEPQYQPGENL

[5] = target: Lyn enzyme (Homo sapiens (Human), UniProt P07948); experiment: Lyn enzyme activity (IMAP fluorescence polarization assay); conditions: read-out: EC50 Lyn activity values, 60 min pre-incubation, 2 μM ATP, bin bound in μM
Lyn enzyme, sequence (P07948 whole entry): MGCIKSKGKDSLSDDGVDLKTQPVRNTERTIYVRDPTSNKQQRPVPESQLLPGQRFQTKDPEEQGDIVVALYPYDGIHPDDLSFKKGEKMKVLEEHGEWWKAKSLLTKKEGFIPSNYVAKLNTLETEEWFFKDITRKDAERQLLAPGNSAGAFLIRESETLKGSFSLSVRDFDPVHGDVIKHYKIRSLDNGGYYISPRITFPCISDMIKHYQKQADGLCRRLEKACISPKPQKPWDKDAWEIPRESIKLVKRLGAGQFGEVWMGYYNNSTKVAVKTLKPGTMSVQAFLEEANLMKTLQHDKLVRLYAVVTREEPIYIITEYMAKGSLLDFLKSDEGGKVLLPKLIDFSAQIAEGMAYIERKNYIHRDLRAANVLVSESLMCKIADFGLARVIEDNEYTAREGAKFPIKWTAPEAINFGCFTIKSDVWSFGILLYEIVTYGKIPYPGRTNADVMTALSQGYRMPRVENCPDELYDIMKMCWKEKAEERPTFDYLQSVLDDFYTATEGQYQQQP

[6] = read-out: EC50 Btk activity values, IMAP, 60 min pre-incubation, 5 μM ATP, bin bound in nM
[7] = IMAP, 60 min pre-incubation, 5 μM ATP, bin bound in nM

FynT enzyme, sequence (P06241 other isoform, or with tags, fused parts or gaps): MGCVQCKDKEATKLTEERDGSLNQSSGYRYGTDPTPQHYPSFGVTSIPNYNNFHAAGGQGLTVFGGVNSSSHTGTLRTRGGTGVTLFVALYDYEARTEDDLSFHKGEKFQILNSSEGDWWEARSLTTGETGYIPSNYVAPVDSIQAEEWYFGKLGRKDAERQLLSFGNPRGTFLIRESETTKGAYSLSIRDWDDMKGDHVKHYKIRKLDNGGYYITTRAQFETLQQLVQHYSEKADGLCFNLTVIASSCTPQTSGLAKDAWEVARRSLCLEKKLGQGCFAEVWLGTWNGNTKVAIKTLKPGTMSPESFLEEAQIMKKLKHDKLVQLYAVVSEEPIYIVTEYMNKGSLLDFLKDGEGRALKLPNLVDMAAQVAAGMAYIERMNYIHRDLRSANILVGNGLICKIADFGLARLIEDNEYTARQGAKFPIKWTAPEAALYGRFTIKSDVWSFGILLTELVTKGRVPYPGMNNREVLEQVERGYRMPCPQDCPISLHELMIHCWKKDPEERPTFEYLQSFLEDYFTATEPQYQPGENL

Row | Structure (SMILES) | EC50 [1] [nM] | EC50 [2, 6] [nM] | EC50 [3] [µM] | EC50 [4] [nM] | EC50 [5] [µM] | EC50 [2] [nM] | EC50 Btk activity values [2, 7] [nM]
1 | C=CC(=O)N1CCCC[C@H]1c1nc(-c2ccc(C(=O)Nc3ncccn3)cc2)c2c(N)nccn12 [Example 20, (S)-4-(3-(1-Acryloylpiperidin-2-yl)-8-aminoimidazo[1,5-a]pyrazin-1-yl)-N-(pyrimidin-2-yl)benzamide] | ≥ 1000 | < 10 | ≥ 1 | ≥ 1000 | ≥ 1 | – | –
2 | C=CC(=O)N1CCCC[C@H]1c1nc(-c2ccc(C(=O)Nc3nccc(C)n3)cc2)c2c(N)nccn12 [Example 21, (S)-4-(3-(1-Acryloylpiperidin-2-yl)-8-aminoimidazo[1,5-a]pyrazin-1-yl)-N-(4-methylpyrimidin-2-yl)benzamide] | ≥ 1000 | < 10 | ≥ 1 | ≥ 1000 | ≥ 1 | – | –
3 | CC#CC(=O)N1CCCC[C@H]1c1nc(-c2ccc(C(=O)Nc3ccncn3)cc2)c2c(N)nccn12 [Example 22, (S)-4-(8-Amino-3-(1-but-2-ynoylpiperidin-2-yl)imidazo[1,5-a]pyrazin-1-yl)-N-(pyrimidin-4-yl)benzamide] | ≥ 1000 | < 10 | ≥ 1 | ≥ 1000 | ≥ 1 | – | –
4 | CC#CC(=O)N1CCCC[C@H]1c1nc(-c2ccc(C(=O)Nc3cccnn3)cc2)c2c(N)nccn12 [Example 23, (S)-4-(8-Amino-3-(1-but-2-ynoylpiperidin-2-yl)imidazo[1,5-a]pyrazin-1-yl)-N-(pyridazin-3-yl)benzamide] | ≥ 1000 | < 10 | ≥ 1 | ≥ 1000 | ≥ 1 | – | –
5 | CC#CC(=O)N1CCCC[C@H]1c1nc(-c2ccc(C(=O)Nc3ccon3)cc2)c2c(N)nccn12 [Example 24, (S)-4-(8-Amino-3-(1-but-2-ynoylpiperidin-2-yl)imidazo[1,5-a]pyrazin-1-yl)-N-(isoxazol-3-yl)benzamide] | ≥ 1000 | – | ≥ 1 | ≥ 1000 | ≥ 1 | 10 to 100 | <100
6 | CCc1cnc(NC(=O)c2ccc(-c3nc([C@@H]4CCCCN4C(=O)/C=C/COC)n4ccnc(N)c34)cc2)s1 [Example 25, (S,E)-4-(8-Amino-3-(1-(4-methoxybut-2-enoyl)piperidin-2-yl)imidazo[1,5-a]pyrazin-1-yl)-N-(5-ethylthiazol-2-yl)benzamide] | ≥ 1000 | < 10 | ≥ 1 | ≥ 1000 | ≥ 1 | – | –
7 | C=CC(=O)N1CCCC[C@H]1c1nc(-c2ccc(C(=O)Nc3cc(CCC)ccn3)c(F)c2)c2c(N)nccn12 [Example 26, (S)-4-(3-(1-Acryloylpiperidin-2-yl)-8-aminoimidazo[1,5-a]pyrazin-1-yl)-2-fluoro-N-(4-propylpyridin-2-yl)benzamide] | ≥ 1000 | < 10 | ≥ 1 | ≥ 1000 | ≥ 1 | – | –
8 | CCCc1ccnc(NC(=O)c2ccc(-c3nc([C@@H]4CCCCN4C(=O)/C=C/CN(C)C)n4ccnc(N)c34)cc2OC)c1 [Example 27, (S,E)-4-(8-Amino-3-(1-(4-(dimethylamino)but-2-enoyl)piperidin-2-yl)imidazo[1,5-a]pyrazin-1-yl)-2-methoxy-N-(4-propylpyridin-2-yl)benzamide] | ≥ 1000 | < 10 | ≥ 1 | ≥ 1000 | ≥ 1 | – | –
9 | CC#CC(=O)N1CCCC[C@H]1c1nc(-c2ccc(C(=O)Nc3ccccn3)cc2C)c2c(N)nccn12 [Example 28, 4-(8-Amino-3-((S)-1-but-2-ynoylpiperidin-2-yl)imidazo[1,5-a]pyrazin-1-yl)-3-methyl-N-(pyridin-2-yl)benzamide] | ≥ 1000 | < 10 | ≥ 1 | ≥ 1000 | ≥ 1 | – | –
10 | C=CC(=O)NCc1nc(-c2ccc(C(=O)Nc3ccccn3)cc2)c2c(N)nccn12 [Example 29, 4-(3-(Acrylamidomethyl)-8-aminoimidazo[1,5-a]pyrazin-1-yl)-N-(pyridin-2-yl)benzamide] | ≥ 1000 | < 10 | ≥ 1 | ≥ 1000 | ≥ 1 | – | –
11 | CC#CC(=O)N[C@@H](C)c1nc(-c2ccc(C(=O)Nc3ccccn3)cc2)c2c(N)nccn12 [Example 30, (S)-4-(8-Amino-3-(1-but-2-ynamidoethyl)imidazo[1,5-a]pyrazin-1-yl)-N-(pyridin-2-yl)benzamide] | ≥ 1000 | < 10 | ≥ 1 | ≥ 1000 | ≥ 1 | – | –
12 | CC(=O)SCC(=O)N1CCC[C@H]1c1nc(-c2ccc(C(=O)Nc3ccccn3)cc2)c2c(N)nccn12 [Example 31, (S)—S-2-(2-(8-Amino-1-(4-(pyridin-2-ylcarbamoyl)phenyl)imidazo[1,5-a]pyrazin-3-yl)pyrrolidin-1-yl)-2-oxoethyl ethanethioate] | ≥ 1000 | < 10 | ≥ 1 | ≥ 1000 | ≥ 1 | – | –
13 | CC(C)(O)C#CC(=O)N1CCC[C@H]1c1nc(-c2ccc(C(=O)Nc3ccccn3)cc2)c2c(N)nccn12 [Example 32, (S)-4-(8-Amino-3-(1-(4-hydroxy-4-methylpent-2-ynoyl)pyrrolidin-2-yl)imidazo[1,5-a]pyrazin-1-yl)-N-(pyridin-2-yl)benzamide] | ≥ 1000 | < 10 | ≥ 1 | ≥ 1000 | ≥ 1 | – | –
14 | Nc1nccn2c([C@@H]3CCCN3C(=O)c3cc(Cl)ncn3)nc(-c3ccc(C(=O)Nc4ccccn4)cc3)c12 [Example 33, (S)-4-(8-Amino-3-(1-(6-chloropyrimidine-4-carbonyl)pyrrolidin-2-yl)imidazo[1,5-a]pyrazin-1-yl)-N-(pyridin-2-yl)benzamide] | ≥ 1000 | < 10 | ≥ 1 | ≥ 1000 | ≥ 1 | – | –
15 | CCC#CC(=O)N1CCC[C@H]1c1nc(-c2ccc(C(=O)Nc3ccccn3)cc2)c2c(N)nccn12 [Example 34, (S)-4-(8-Amino-3-(1-pent-2-ynoylpyrrolidin-2-yl)imidazo[1,5-a]pyrazin-1-yl)-N-(pyridin-2-yl)benzamide] | ≥ 1000 | < 10 | ≥ 1 | ≥ 1000 | ≥ 1 | – | –
16 | Nc1nccn2c([C@@H]3CCCN3C(=O)C#CC3CC3)nc(-c3ccc(C(=O)Nc4ccccn4)cc3)c12 [Example 35, (S)-4-(8-Amino-3-(1-(3-cyclopropylpropioloyl)pyrrolidin-2-yl)imidazo[1,5-a]pyrazin-1-yl)-N-(pyridin-2-yl)benzamide] | ≥ 1000 | < 10 | ≥ 1 | ≥ 1000 | ≥ 1 | – | –
17 | CCCC#CC(=O)N1CCC[C@H]1c1nc(-c2ccc(C(=O)Nc3ccccn3)cc2)c2c(N)nccn12 [Example 36, (S)-4-(8-Amino-3-(1-hex-2-ynoylpyrrolidin-2-yl)imidazo[1,5-a]pyrazin-1-yl)-N-(pyridin-2-yl)benzamide] | ≥ 1000 | < 10 | ≥ 1 | ≥ 1000 | ≥ 1 | – | –
18 | C=CC(=O)N1CCCCCC1c1nc(-c2ccc(C(=O)Nc3ccccn3)cc2)c2c(N)nccn12 (centres unmarked) [Example 37, 4-(3-(1-Acrloylazepan-2-yl)-8-aminoimidazo[1,5-a]pyrazin-1-yl)-N-(pyridin-2-yl)benzamide] | ≥ 1000 | < 10 | ≥ 1 | ≥ 1000 | ≥ 1 | – | –
19 | CC#CC(=O)N1CCOC[C@H]1c1nc(-c2ccc(C(=O)Nc3ccccn3)cc2)c2c(N)nccn12 [Example 38, (R)-4-(8-Amino-3-(4-but-2-ynoylmorpholin-3-yl)imidazo[1,5-a]pyrazin-1-yl)-N-(pyridin-2-yl)benzamide] | ≥ 1000 | < 10 | ≥ 1 | ≥ 1000 | ≥ 1 | – | –
20 | CC#CC(=O)N(C)[C@@H](C)c1nc(-c2ccc(C(=O)Nc3cc(C(F)(F)F)ccn3)cc2)c2c(N)nccn12 [Example 39, (S)-4-(8-amino-3-(1-(N-methylbut-2-ynamido)ethyl)imidazo[1,5-a]pyrazin-1-yl)-N-(4-(trifluoromethyl)pyridin-2-yl)benzamide] | ≥ 1000 | < 10 | ≥ 1 | ≥ 1000 | ≥ 1 | – | –
21 | CN(C)CC#CC(=O)N1CCC[C@H]1c1nc(-c2ccc(C(=O)Nc3ccccn3)cc2)c2c(N)nccn12 [Example 40, (S)-4-(8-Amino-3-(1-(4-(dimethylamino)but-2-ynoyl)pyrrolidin-2-yl)imidazo[1,5-a]pyrazin-1-yl)-N-(pyridin-2-yl)benzamide] | ≥ 1000 | – | ≥ 1 | ≥ 1000 | ≥ 1 | 10 to 100 | <100
